Test results: PubChem BioAssay (NCI)
Where “and” joins values, the source holds several entries; their conditions need not be identical. Identical values can stand only once.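 Assay format: 96-well plates, 48-hour exposure. Here, GI50 denotes the concentration required for 50% inhibition of growth. At the TGI there is no net growth.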

Key:
Assay in all cases: growth of human tumour cells (NCI), 48 h
[1] = tested on: EKVX NSCLC
[2] = tested on: SNB-19 CNS
[3] = tested on: HOP-92 NSCLC
[4] = tested on: HCC-2998 colon
[5] = tested on: DU-145 prostate
[6] = tested on: MDA-N
[7] = tested on: ACHN renal
[8] = tested on: A498 renal
[9] = tested on: OVCAR-3 ovarian
[10] = tested on: SK-MEL-28 melanoma

Row | Structure (SMILES) | TGI [1] | TGI [2] | TGI [3] | TGI [4] | TGI [5] | TGI [6] | TGI [7] | TGI [8] | TGI [9] | TGI [10] | GI50 [1] | GI50 [2] | GI50 [3] | GI50 [4] | GI50 [6] | GI50 [7] | GI50 [9] | GI50 [10]
1 | CCN(CC)C(=O)CCNC(C)Cc1c[nH]c2ccccc12 (stereo not drawn) | > 100 µM | > 100 µM | > 100 µM | > 100 µM | > 100 µM | > 100 µM | > 100 µM | > 100 µM | > 100 µM | > 100 µM |  |  |  |  |  |  |  | 
2 | CCOC(=O)C1=CN(Cc2ccccc2)C2ON=C(c3ccc(Cl)cc3)C2C1 (stereo not drawn) | > 65.1 µM | > 100 µM | > 100 µM | > 100 µM | > 70 µM | > 68.9 µM | > 65.2 µM | > 56.8 µM | > 67.1 µM | > 71.8 µM |  |  |  |  |  |  |  | 
3 | CCOC(=O)C(/C=N/C(N)=S)=C(/O)c1ccccc1 | > 100 µM | > 100 µM | > 100 µM | > 100 µM | > 100 µM | > 100 µM | > 100 µM | > 100 µM | > 100 µM | > 100 µM |  |  |  |  |  |  |  | 
4 | O=C1CN2CCN(CC2)CC(=O)Nc2ccc(cc2)S(=O)(=O)c2ccc(cc2)NC(=O)CN2CCN(CC2)CC(=O)Nc2ccc(cc2)S(=O)(=O)c2ccc(cc2)N1 | > 100 µM | > 100 µM | > 100 µM | > 100 µM | > 100 µM | > 100 µM | > 100 µM | > 100 µM | > 100 µM | > 100 µM |  |  |  |  |  |  |  | 
5 | COc1ccc2oc(=O)c(-c3nc4ccccc4s3)cc2c1 | > 65 µM | > 100 µM | 58.2 µM | > 100 µM | > 67.5 µM | > 67.2 µM | 12.7 µM | 54.2 µM | 43.7 µM | > 100 µM |  |  |  |  |  |  |  | 
6 | C[C@H](OC(=O)/C=C/c1ccc(O)c(O)c1)[C@H](C)OC(=O)/C=C/c1ccc(O)c(O)c1 | 33 µM | 25.6 µM | 38.2 µM | 33.4 µM | 39.3 µM | 18.4 µM | 30.5 µM | 51.7 µM | 14.8 µM | 28.6 µM |  |  |  |  |  |  |  | 
7 | COc1ccc(/C=C/C(=O)N[C@@H]2C(=O)N3[C@@H]2SC(C)(C)[C@@H]3C(=O)O)cc1OC | > 100 µM | > 100 µM | > 100 µM | > 100 µM | > 100 µM | > 100 µM | > 100 µM | > 100 µM | > 100 µM | > 100 µM |  |  |  |  |  |  |  | 
8 | CC(C)(C)OC(=O)/C=C/[C@@H](CCC(=O)/C=C/[C@H](/C=C\CCCC(=O)O)NC1(c2ccccc2)c2ccccc2-c2ccccc21)O[Si](C)(C)C(C)(C)C | 45.9 µM | 41.8 µM | 16 µM | 32.5 µM | 32.6 µM | 47.2 µM | 36.3 µM | 34 µM | 32.9 µM | 69.6 µM |  |  |  |  |  |  |  | 
9 | Cc1cn(C2CC(/[N+]([O-])=N\Nc3ccc([N+](=O)[O-])cc3)C(CO)O2)c(=O)[nH]c1=O (stereo not drawn) | > 100 µM | > 100 µM | > 100 µM | > 100 µM | > 100 µM | > 100 µM | > 100 µM | > 100 µM | > 100 µM | > 100 µM |  |  |  |  |  |  |  | 
10 | CN(C)C=Nc1cccc2c1NSN2 | > 100 µM | > 100 µM | > 100 µM | > 100 µM | > 100 µM | > 100 µM | > 100 µM | > 100 µM | > 100 µM | > 100 µM |  |  |  |  |  |  |  | 
11 | Cc1cccc2c1CC1(Cc3c(C)cccc3C1=O)C2=O | > 100 µM | > 100 µM | > 100 µM | > 100 µM | > 100 µM | > 100 µM | > 100 µM | > 100 µM | > 100 µM | > 100 µM |  |  |  |  |  |  |  | 
12 | COc1ccc(OC)c2c1-c1nnnn1CCC2(C)C | > 100 µM | > 100 µM | > 100 µM | > 100 µM | > 100 µM | > 100 µM | > 100 µM | > 100 µM | > 100 µM | > 100 µM |  |  |  |  |  |  |  | 
13 | CCN(CC)CCCNc1c2cc(OC)ccc2nc2cccc([N+](=O)[O-])c12 | 0.446 µM | 2.02 µM | 0.239 µM | 0.192 µM | 0.426 µM | 0.277 µM | 0.306 µM | 0.0647 µM | 0.176 µM | 0.534 µM |  |  |  |  |  |  |  | 
14 | COC(=O)/C=C/c1cc(OC)c2c(c1)C(C(=O)OC)C(c1ccc(O)c(OC)c1)O2 (stereo not drawn) | > 100 µM and 57.6 µM | > 100 µM | > 100 µM | 48.4 µM and 25.6 µM and 21 µM | > 100 µM and 35.7 µM | 29.1 µM | > 100 µM | > 65.4 µM and > 100 µM and 77.3 µM | > 27 µM and > 25.6 µM and 19.8 µM | > 100 µM and > 70.4 µM and 86.7 µM | > 29.4 µM and 18.5 µM and 3.45 µM | 4.15 µM and 4.27 µM and 9.01 µM | > 37.2 µM and 12.4 µM and 16.9 µM | 24.5 µM and 10.6 µM and 5.69 µM | 0.204 µM | > 26.2 µM and 15.9 µM and 7.59 µM | 4.97 µM and 3.89 µM and 2 µM | > 56.3 µM and 18.9 µM and 9.69 µM
15 | FC(F)(F)c1ccc(N=NN2CCCC2)cc1 | > 100 µM | > 100 µM | > 100 µM | > 100 µM | > 100 µM | > 100 µM | > 100 µM | > 100 µM | > 100 µM | > 100 µM |  |  |  |  |  |  |  | 
16 | CCOc1ccnc2c(OC)c(C)c3nc4ccccc4nc3c12 | > 100 µM | > 100 µM | > 100 µM | > 100 µM | > 100 µM | > 100 µM | > 100 µM | > 100 µM | > 100 µM | > 100 µM |  |  |  |  |  |  |  | 
